Experimental data reported in PubChem BioAssay AID2060905 (Molecular Pharmacology Branch, DTP, NCI, 2025).

Tested on: 282377-053-R-J1-PDC complex spheroid viability
Experiment: Anticancer human tumor 282377-053-R-J1-PDC patient-derived colon adenocarcinoma cell line growth inhibition [RAS]
Settings: for IC50: curve of first compound; for viability, T/C: stronger effect = lower value
Procedure, shortened: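 Tumour cells grown as complex spheroids with HUVEC endothelial cells and mesenchymal stem cells, treated with RAS pathway inhibitor combinations. Each agent spans half-log steps from near clinical Cmax, or 10 microM where Cmax is unknown.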
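Further: spheroids exposed to agents for seven days before readout.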
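Wherever viability, T/C is given: luminescence viability as percent of DMSO vehicle control wells.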

C=CC(=O)N1CCN(c2nc(OCC3CCCN3C)nc3c(F)c(-c4nc(N)cc(C)c4C(F)(F)F)c(Cl)cc23)C(C)C1 (centres undefined) + CCn1c(-c2cccnc2C(C)OC)c2c3cc(ccc31)N1CCOC(CC(NC(=O)C(C(C)C)N(C)C(=O)C3(F)CCN(C(=O)C#CC(C)(C)N(C)C)CC3)C(=O)N3CCCC(N3)C(=O)OCC(C)(C)C2)C1
IC50 (second compound 0.000949 µM): > 1000 nM
IC50 (second compound 0.003 µM): > 1000 nM
IC50 (second compound 0.00949 µM): > 1000 nM
IC50 (second compound 0.03 µM): > 1000 nM
IC50 (second compound 0.0949 µM): > 1000 nM
IC50 (second compound 0.3 µM): > 1000 nM
viability, T/C (second compound 0.000949 µM, first compound 0.00316 µM): 90.6%
viability, T/C (second compound 0.000949 µM, first compound 0.01 µM): 110%
viability, T/C (second compound 0.000949 µM, first compound 0.0316 µM): 109%
viability, T/C (second compound 0.000949 µM, first compound 0.1 µM): 92.1%
viability, T/C (second compound 0.000949 µM, first compound 0.316 µM): 98%
viability, T/C (second compound 0.000949 µM, first compound 1 µM): 87.1%
viability, T/C (second compound 0.003 µM, first compound 0.00316 µM): 105%
viability, T/C (second compound 0.003 µM, first compound 0.01 µM): 131%
viability, T/C (second compound 0.003 µM, first compound 0.0316 µM): 86.9%
viability, T/C (second compound 0.003 µM, first compound 0.1 µM): 101%
viability, T/C (second compound 0.003 µM, first compound 0.316 µM): 81.2%
viability, T/C (second compound 0.003 µM, first compound 1 µM): 85.3%
viability, T/C (second compound 0.00949 µM, first compound 0.00316 µM): 96.2%
viability, T/C (second compound 0.00949 µM, first compound 0.01 µM): 92.7%
viability, T/C (second compound 0.00949 µM, first compound 0.0316 µM): 83.6%
viability, T/C (second compound 0.00949 µM, first compound 0.1 µM): 88.7%
viability, T/C (second compound 0.00949 µM, first compound 0.316 µM): 81.5%
viability, T/C (second compound 0.00949 µM, first compound 1 µM): 82.8%
viability, T/C (second compound 0.03 µM, first compound 0.00316 µM): 92.9%
viability, T/C (second compound 0.03 µM, first compound 0.01 µM): 97.5%
viability, T/C (second compound 0.03 µM, first compound 0.0316 µM): 86.2%
viability, T/C (second compound 0.03 µM, first compound 0.1 µM): 112%
viability, T/C (second compound 0.03 µM, first compound 0.316 µM): 89.9%
viability, T/C (second compound 0.03 µM, first compound 1 µM): 93.8%
viability, T/C (second compound 0.0949 µM, first compound 0.00316 µM): 90.5%
viability, T/C (second compound 0.0949 µM, first compound 0.01 µM): 104%
viability, T/C (second compound 0.0949 µM, first compound 0.0316 µM): 115%
viability, T/C (second compound 0.0949 µM, first compound 0.1 µM): 109%
viability, T/C (second compound 0.0949 µM, first compound 0.316 µM): 109%
viability, T/C (second compound 0.0949 µM, first compound 1 µM): 96.3%
viability, T/C (second compound 0.3 µM, first compound 0.00316 µM): 90.1%
viability, T/C (second compound 0.3 µM, first compound 0.01 µM): 92.1%
viability, T/C (second compound 0.3 µM, first compound 0.0316 µM): 97.5%
viability, T/C (second compound 0.3 µM, first compound 0.1 µM): 93.3%
viability, T/C (second compound 0.3 µM, first compound 0.316 µM): 113%
viability, T/C (second compound 0.3 µM, first compound 1 µM): 98.2%

CC1(C)CCC(Nc2ncc(C(F)(F)F)c(-c3c[nH]c4c(P(C)(C)=O)c(C#N)ccc34)n2)CN1 (centres undefined) + CCn1c(-c2cccnc2C(C)OC)c2c3cc(ccc31)N1CCOC(CC(NC(=O)C(C(C)C)N(C)C(=O)C3(F)CCN(C(=O)C#CC(C)(C)N(C)C)CC3)C(=O)N3CCCC(N3)C(=O)OCC(C)(C)C2)C1
IC50 (second compound 0.000949 µM): > 300 nM
IC50 (second compound 0.003 µM): > 300 nM
IC50 (second compound 0.00949 µM): > 300 nM
IC50 (second compound 0.03 µM): > 300 nM
IC50 (second compound 0.0949 µM): > 300 nM
IC50 (second compound 0.3 µM): > 300 nM
viability, T/C (second compound 0.000949 µM, first compound 0.000949 µM): 83.9%
viability, T/C (second compound 0.000949 µM, first compound 0.003 µM): 124%
viability, T/C (second compound 0.000949 µM, first compound 0.00949 µM): 115%
viability, T/C (second compound 0.000949 µM, first compound 0.03 µM): 90%
viability, T/C (second compound 0.000949 µM, first compound 0.0949 µM): 104%
viability, T/C (second compound 0.000949 µM, first compound 0.3 µM): 75.9%
viability, T/C (second compound 0.003 µM, first compound 0.000949 µM): 94.1%
viability, T/C (second compound 0.003 µM, first compound 0.003 µM): 112%
viability, T/C (second compound 0.003 µM, first compound 0.00949 µM): 140%
viability, T/C (second compound 0.003 µM, first compound 0.03 µM): 88.6%
viability, T/C (second compound 0.003 µM, first compound 0.0949 µM): 89.5%
viability, T/C (second compound 0.003 µM, first compound 0.3 µM): 89.3%
viability, T/C (second compound 0.00949 µM, first compound 0.000949 µM): 102%
viability, T/C (second compound 0.00949 µM, first compound 0.003 µM): 105%
viability, T/C (second compound 0.00949 µM, first compound 0.00949 µM): 134%
viability, T/C (second compound 0.00949 µM, first compound 0.03 µM): 97%
viability, T/C (second compound 0.00949 µM, first compound 0.0949 µM): 80.8%
viability, T/C (second compound 0.00949 µM, first compound 0.3 µM): 92.9%
viability, T/C (second compound 0.03 µM, first compound 0.000949 µM): 89.3%
viability, T/C (second compound 0.03 µM, first compound 0.003 µM): 118%
viability, T/C (second compound 0.03 µM, first compound 0.00949 µM): 98.2%
viability, T/C (second compound 0.03 µM, first compound 0.03 µM): 96.3%
viability, T/C (second compound 0.03 µM, first compound 0.0949 µM): 91.2%
viability, T/C (second compound 0.03 µM, first compound 0.3 µM): 96.9%
viability, T/C (second compound 0.0949 µM, first compound 0.000949 µM): 84.5%
viability, T/C (second compound 0.0949 µM, first compound 0.003 µM): 135%
viability, T/C (second compound 0.0949 µM, first compound 0.00949 µM): 131%
viability, T/C (second compound 0.0949 µM, first compound 0.03 µM): 77%
viability, T/C (second compound 0.0949 µM, first compound 0.0949 µM): 75.1%
viability, T/C (second compound 0.0949 µM, first compound 0.3 µM): 67.9%
viability, T/C (second compound 0.3 µM, first compound 0.000949 µM): 92.6%
viability, T/C (second compound 0.3 µM, first compound 0.003 µM): 107%
viability, T/C (second compound 0.3 µM, first compound 0.00949 µM): 110%
viability, T/C (second compound 0.3 µM, first compound 0.03 µM): 84.5%
viability, T/C (second compound 0.3 µM, first compound 0.0949 µM): 56.9%
viability, T/C (second compound 0.3 µM, first compound 0.3 µM): 53.6%
